Blank lines part the entries; values can stand above or below the compound they belong to.
System: 817829-284-R-J1-PDC multi-cell spheroid viability
Test: Anticancer human tumor 817829-284-R-J1-PDC patient-derived colon adenocarcinoma cell line growth inhibition [PI3K]
Details: for IC50: curve of first compound; for viability, T/C: stronger effect = lower value
Outline: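 Complex 3D spheroids (cancer cells + endothelial HUVEC + mesenchymal stem cells); drug pairs of targeted agent x inavolisib/alpelisib/duvelisib/copanlisib; half-log series from ~Cmax, max 10 microM if Cmax unknown; endpoint viability.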

[1] = second compound 0.00316 µM, first compound 0.0316 µM
[2] = second compound 0.00316 µM, first compound 0.1 µM
[3] = second compound 0.00316 µM, first compound 0.316 µM
[4] = second compound 0.00316 µM, first compound 1 µM
[5] = second compound 0.01 µM, first compound 0.0316 µM
[6] = second compound 0.01 µM, first compound 0.1 µM
[7] = second compound 0.01 µM, first compound 0.316 µM
[8] = second compound 0.01 µM, first compound 1 µM
[9] = second compound 0.0316 µM, first compound 0.0316 µM
[10] = second compound 0.0316 µM, first compound 0.1 µM
[11] = second compound 0.0316 µM, first compound 0.316 µM
[12] = second compound 0.0316 µM, first compound 1 µM
[13] = second compound 0.1 µM, first compound 0.0316 µM
[14] = second compound 0.1 µM, first compound 0.1 µM
[15] = second compound 0.1 µM, first compound 0.316 µM
[16] = second compound 0.1 µM, first compound 1 µM
[17] = second compound 0.316 µM, first compound 0.0316 µM
[18] = second compound 0.316 µM, first compound 0.1 µM
[19] = second compound 0.316 µM, first compound 0.316 µM
[20] = second compound 0.316 µM, first compound 1 µM
[21] = second compound 1 µM, first compound 0.0316 µM
[22] = second compound 1 µM, first compound 0.1 µM
[23] = second compound 1 µM, first compound 0.316 µM
[24] = second compound 1 µM, first compound 1 µM
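Note: spheroids exposed to agents for seven days before readout.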
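Throughout, for viability, T/C: percent of vehicle DMSO control viability which is 100%.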

IC50 (second compound 0.00316 µM): > 1000 nM | IC50 (second compound 0.01 µM): > 1000 nM | IC50 (second compound 0.0316 µM): 57.5 nM | IC50 (second compound 0.1 µM): < 3.16 nM | IC50 (second compound 0.316 µM): < 3.16 nM | IC50 (second compound 1 µM): < 3.16 nM
SMILES: CCN1CCN(Cc2ccc(Nc3ncc(F)c(-c4cc(F)c5nc(C)n(C(C)C)c5c4)n3)nc2)CC1 + COc1c(OCCCN2CCOCC2)ccc2c3n(c(=NC(=O)c4cnc(N)nc4)nc12)CCN3
viability, T/C (second compound 0.00316 µM, first compound 0.00316 µM): 113% | viability, T/C (second compound 0.00316 µM, first compound 0.01 µM): 83.4% | viability, T/C [1]: 72.7% | viability, T/C [2]: 50.2% | viability, T/C [3]: 50.7% | viability, T/C [4]: 53.8% | viability, T/C (second compound 0.01 µM, first compound 0.00316 µM): 75.4% | viability, T/C (second compound 0.01 µM, first compound 0.01 µM): 60.3% | viability, T/C [5]: 58.7% | viability, T/C [6]: 58% | viability, T/C [7]: 47.8% | viability, T/C [8]: 50.4% | viability, T/C (second compound 0.0316 µM, first compound 0.00316 µM): 56% | viability, T/C (second compound 0.0316 µM, first compound 0.01 µM): 55.5% | viability, T/C [9]: 73.6% | viability, T/C [10]: 27.9% | viability, T/C [11]: 41.4% | viability, T/C [12]: 48.2% | viability, T/C (second compound 0.1 µM, first compound 0.00316 µM): 36.2% | viability, T/C (second compound 0.1 µM, first compound 0.01 µM): 32% | viability, T/C [13]: 27.9% | viability, T/C [14]: 21.1% | viability, T/C [15]: 31.3% | viability, T/C [16]: 38.5% | viability, T/C (second compound 0.316 µM, first compound 0.00316 µM): 22% | viability, T/C (second compound 0.316 µM, first compound 0.01 µM): 16% | viability, T/C [17]: 21.6% | viability, T/C [18]: 21.2% | viability, T/C [19]: 34.1% | viability, T/C [20]: 29.4% | viability, T/C (second compound 1 µM, first compound 0.00316 µM): 9.7% | viability, T/C (second compound 1 µM, first compound 0.01 µM): 9.65% | viability, T/C [21]: 9.55% | viability, T/C [22]: 12.1% | viability, T/C [23]: 16.5% | viability, T/C [24]: 21.9%

IC50 (second compound 0.00316 µM): 230 nM | IC50 (second compound 0.01 µM): 88.4 nM | IC50 (second compound 0.0316 µM): 76.7 nM | IC50 (second compound 0.1 µM): < 31.6 nM | IC50 (second compound 0.316 µM): < 31.6 nM | IC50 (second compound 1 µM): < 31.6 nM
SMILES: CC(C)NCC(C(=O)N1CCN(c2ncnc3c2C(C)CC3O)CC1)c1ccc(Cl)cc1 (centres undefined) + COc1c(OCCCN2CCOCC2)ccc2c3n(c(=NC(=O)c4cnc(N)nc4)nc12)CCN3
viability, T/C [1]: 78.3% | viability, T/C [2]: 51.8% | viability, T/C [3]: 54.5% | viability, T/C [4]: 30.8% | viability, T/C (second compound 0.00316 µM, first compound 3.16 µM): 23% | viability, T/C (second compound 0.00316 µM, first compound 10 µM): 15.1% | viability, T/C [5]: 65% | viability, T/C [6]: 49.1% | viability, T/C [7]: 24.8% | viability, T/C [8]: 21.6% | viability, T/C (second compound 0.01 µM, first compound 3.16 µM): 21.2% | viability, T/C (second compound 0.01 µM, first compound 10 µM): 10.2% | viability, T/C [9]: 72.6% | viability, T/C [10]: 40.6% | viability, T/C [11]: 29.9% | viability, T/C [12]: 21.4% | viability, T/C (second compound 0.0316 µM, first compound 3.16 µM): 22.9% | viability, T/C (second compound 0.0316 µM, first compound 10 µM): 9.33% | viability, T/C [13]: 40.7% | viability, T/C [14]: 23.7% | viability, T/C [15]: 26.5% | viability, T/C [16]: 15.4% | viability, T/C (second compound 0.1 µM, first compound 3.16 µM): 13.4% | viability, T/C (second compound 0.1 µM, first compound 10 µM): 8.69% | viability, T/C [17]: 20% | viability, T/C [18]: 19.8% | viability, T/C [19]: 23.6% | viability, T/C [20]: 16.6% | viability, T/C (second compound 0.316 µM, first compound 3.16 µM): 8.4% | viability, T/C (second compound 0.316 µM, first compound 10 µM): 7.04% | viability, T/C [21]: 12.4% | viability, T/C [22]: 12.3% | viability, T/C [23]: 13.2% | viability, T/C [24]: 10% | viability, T/C (second compound 1 µM, first compound 3.16 µM): 6.2% | viability, T/C (second compound 1 µM, first compound 10 µM): 5%

— PubChem BioAssay AID1963969 (Molecular Pharmacology Branch, DTP, NCI, 2024)
